The results in this text go back to ChEMBL document CHEMBL1151559, “Pyridine and piperidine derivatives as inhibitors of dihydrodipicolinic acid synthase, a key enzyme in the diaminopimelate pathway to l-lysine” (Bioorg Med Chem Lett, 1994).

In assay [1] the target is T1, Dihydrodipicolinate synthase (Streptomyces coelicolor (strain ATCC BAA-471 / A3(2) / M145), UniProt Q93RY0).
T1 sequence (Q93RY0 whole entry): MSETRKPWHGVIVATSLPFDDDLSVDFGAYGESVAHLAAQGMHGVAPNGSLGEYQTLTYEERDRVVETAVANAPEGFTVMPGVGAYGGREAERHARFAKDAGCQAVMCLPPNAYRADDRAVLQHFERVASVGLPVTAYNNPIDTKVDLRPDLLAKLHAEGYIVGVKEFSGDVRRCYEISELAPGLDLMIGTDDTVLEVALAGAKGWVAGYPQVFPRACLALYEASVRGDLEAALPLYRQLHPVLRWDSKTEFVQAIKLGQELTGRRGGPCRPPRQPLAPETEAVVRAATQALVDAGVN
Nature of the assay: In vitro inhibition of dihydrodipicolinic acid synthase. Format: functional, Escherichia coli.

Assay [2] has the same target. Nature of the assay: Inhibitory activity against dihydrodipicolinic acid synthase. Format: functional, Escherichia coli.

Where “and” joins values, the source holds several entries; their conditions need not be identical. Equal entries are not always repeated.

One may read the IC50 as the concentration at which inhibition is half-maximal. A lower IC50 goes with higher potency. Compound `O=C(O)c1cccc(C(=O)O)[n+]1[O-]` displayed an IC50 in assay [1] of 200 µM.

`COC(=N)c1cccc(C(=N)OC)n1` returned an IC50 in assay [1] of 200 µM.

In turn, `c1cc(-c2nnn[nH]2)nc(-c2nnn[nH]2)c1` showed an IC50 in assay [1] of 250 µM.

As for `COC(=O)[C@@H]1CCC[C@H](C(=O)OC)N1`, the half-inhibitory concentration (IC50) in assay [1] worked out at 700 µM.

As to `COC(=O)[C@@H]1CCC[C@@H](C(=O)OC)N1`, in assay [1], the IC50 was 5200 µM. Against the preceding compound, the IC50 is about 7.4-fold higher.

In turn, `N#Cc1cccc(C#N)n1` yielded an IC50 in assay [1] of 300 µM.

The Ki is the dissociation constant of the complex between target and ligand, obtained from inhibition or displacement. Regarding `N#C[C@@H]1CCC[C@@H](C#N)N1`, in assay [2], the Ki is 6300 µM.

Consider `COC(=O)c1cccc(C(=O)OC)n1`, for which half-maximal inhibition in assay [1] (IC50) required 700 µM.

As to `O=C(O)c1cccc[n+]1[O-]`, in assay [1], the IC50 stood at 800 µM.

`O=NN1[C@@H](C(=O)O)CCC[C@H]1C(=O)O`: in assay [1], the IC50 amounted to 2300 µM.

Consider `N=C[C@@H]1CCC[C@H](C=N)N1`, for which half-maximal inhibition in assay [1] (IC50) was put at 7200 µM.

In turn, `N#C[C@@H]1CCC[C@H](C#N)N1` registered an IC50 in assay [1] of 7400 µM.

`COC(=O)[C@@H]1CCC[C@@H](C(=O)OC)N1C` gave an IC50 in assay [1] of 700 µM. Against the preceding compound, the IC50 is about 11-fold lower.

In assay [1], `O=NN1CCCCC1C(=O)O` (stereo not drawn) had an IC50 of 3500 µM.

For `O=NN1CCCC1C(=O)O` (stereo not drawn), the IC50 in assay [1] amounted to 7500 µM.

In the case of `COC(=O)[C@H]1CCC[C@@H](C(=O)OC)N1N=O`, the IC50 in assay [1] was 6200 µM and 700 µM.

On to `O=C(O)c1ccccn1` [2-PICOLINIC ACID], for which, in assay [1], it took 1000 µM to reach half-maximal inhibition (IC50). That is a millimolar value.

Take `O=C(O)c1cccc(C(=O)O)n1` [DIPICOLINIC ACID]: the IC50 in assay [1] stood at 400 µM.
